For orientation: IC50 means the concentration that gives 50% inhibition. In general, Km refers to the substrate concentration at which the rate is half of its maximum. Usually inhibition stands for how much of the control response was suppressed.

The source of these data is US10028938B2, “Antiviral agents and uses thereof” (Griffith University, priority 2014, dated 2018).

Data set [1] deals with T1, hPIV-3 HN (UniProt P08492).
T1 sequence (P08492 1-572): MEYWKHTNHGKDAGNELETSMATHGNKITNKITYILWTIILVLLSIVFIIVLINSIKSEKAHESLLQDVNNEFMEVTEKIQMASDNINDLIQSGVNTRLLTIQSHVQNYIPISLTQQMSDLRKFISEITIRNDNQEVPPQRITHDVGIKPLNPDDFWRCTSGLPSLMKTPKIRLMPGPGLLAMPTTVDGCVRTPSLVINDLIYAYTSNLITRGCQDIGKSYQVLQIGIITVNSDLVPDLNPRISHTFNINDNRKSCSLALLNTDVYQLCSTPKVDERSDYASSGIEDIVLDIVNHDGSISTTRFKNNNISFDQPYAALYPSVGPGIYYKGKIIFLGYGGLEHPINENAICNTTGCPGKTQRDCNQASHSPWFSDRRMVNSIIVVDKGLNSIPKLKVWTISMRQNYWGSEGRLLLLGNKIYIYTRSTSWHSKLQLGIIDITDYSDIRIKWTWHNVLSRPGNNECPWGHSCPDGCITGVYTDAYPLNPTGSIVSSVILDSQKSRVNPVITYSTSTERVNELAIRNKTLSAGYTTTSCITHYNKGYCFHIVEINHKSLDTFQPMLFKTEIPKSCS
The class given is biochemical, hPIV-3 (strain C-243). Details: rows headed: NI hPIV-3 IC50. The settings on record: Table 4; read-out: NI hPIV-3 IC50.

For data set [2], the system named is hPIV-3. The data set can be described thus: In situ ELISA virus growth inhibition. The class given is cell-based, hPIV-3 (strain C-243). (An ELISA detects its analyte on a solid surface through an enzyme-linked reagent.)
Data set [3] addresses T1, hPIV-3 HN. The data set is classed as biochemical, hPIV-3 (strain C-243). Also on record: rows headed: HI Mean IC50; hPIV-3 HN; 3 independent experiments; fold improvement in HI assay; other: versus 6; hPIV-3 HN HI IC50; other: text; other: text, unit given as M.
The target of data set [4] is T2, hPIV-3 HN (Human parainfluenza 3 virus, UniProt P08492). The data set is classed as biochemical, hPIV-3 (strain C-243). As to conditions: Table 5; read-out: hPIV-3 NI (IC50 values).
Data set [5] concerns the target T1, hPIV-3 HN. The data set is classed as biochemical, hPIV-3 (strain C-243). Details: rows headed: NI Mean IC50; hPIV-3 HN; 3 independent experiments; Ki; Km value for MUN; other: whole hPIV-3 virus, [I]=0; fold improvement in NI assay; other: versus 6; hPIV-3 HN NI IC50; other: text; other: text, unit given as M.
Data set [6] concerns the target hPIV-1 NI (Human parainfluenza 1 virus, UniProt P16071). The data set can be described thus: biochemical. How it is done: IC50 values for a number of compounds of the first aspect were determined by standard assay methods previously described in Guillon, P et al, Nature Communications (2014).
The target of data set [7] is T2, hPIV-3 HN. The class given is binding. As to conditions: 20 μM hPIV-3 HN, protein:ligand 1:100.
In data set [8] the test system is LLC-MK2 cells. The data set can be described thus: MTT assay for compound cytotoxicity. The settings on record: 48 h, 30 μM, highest concentration tested. A general note: Tetrazolium dyes change colour on reduction, which living cells bring about.
Protocol: Infection was performed in duplicate and continued for 1 h at 37° C. with gentle agitation every 15 min. Inocula were removed and replaced with 500 μL/well of each respective 2 μM compound dilution (in EMEMinf).
Data set [9] addresses T1, hPIV-3 HN. The data set is classed as biochemical, hPIV-3 (strain C-243). Also on record: rows headed: NI Mean IC50; hPIV-3 HN; 3 independent experiments; Ki; Km value for MUN; other: whole hPIV-3 virus, [I]=0; fold improvement in NI assay; other: versus 6; hPIV-3 HN NI IC50; other: text; other: text, unit given as M. As to conditions: read-out: Km value for MUN.
Data set [10] has as its system hPIV-3. In words: Virus growth inhibition assay, titration of progeny virus (focus forming assay) in LLC-MK2 cells. The class given is cell-based, hPIV-3 (strain C-243). As to conditions: Human respirovirus 3, LLC-MK2, 48 h, read-out: Virus growth inhibition (reduction in virus titre).
Where [11] appears, read: Human respirovirus 3, Table 4, A549 cells, hPIV-3, read-out: Cell-based ELISA IC50.
Setting [12] is: Table 2 prints no unit, μM, hPIV-3 HN, 3 independent experiments, read-out: HI Mean IC50.
Setting [13] is: Table 2 prints no unit, μM, hPIV-3 HN, 3 independent experiments, read-out: NI Mean IC50.

Each structure is given as a SMILES string. Like-named read-outs stand apart in the source and are kept apart here.

hPIV-1 NI, sequence (P16071 whole entry): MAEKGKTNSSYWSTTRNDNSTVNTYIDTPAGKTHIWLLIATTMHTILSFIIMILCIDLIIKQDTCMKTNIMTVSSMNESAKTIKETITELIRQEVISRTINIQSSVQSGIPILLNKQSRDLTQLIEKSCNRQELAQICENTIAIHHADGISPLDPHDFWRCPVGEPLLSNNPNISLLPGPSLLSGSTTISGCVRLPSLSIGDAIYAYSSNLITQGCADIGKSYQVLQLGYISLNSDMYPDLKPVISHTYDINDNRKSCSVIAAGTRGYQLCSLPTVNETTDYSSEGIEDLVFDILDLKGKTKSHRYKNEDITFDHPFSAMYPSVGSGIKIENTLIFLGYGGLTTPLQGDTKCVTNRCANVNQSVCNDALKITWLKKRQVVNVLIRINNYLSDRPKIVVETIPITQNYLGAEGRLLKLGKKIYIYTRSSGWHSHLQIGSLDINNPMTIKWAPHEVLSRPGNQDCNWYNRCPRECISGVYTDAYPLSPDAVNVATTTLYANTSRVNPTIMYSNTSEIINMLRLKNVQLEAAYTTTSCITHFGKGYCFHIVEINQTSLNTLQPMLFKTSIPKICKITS

With `CC(C)C(=O)NC1C(N=[N+]=[N-])C(F)C(F)(C(=O)O)OC1[C@H](O)[C@H](O)CO` (some centres unmarked) [I-70], the IC50 came out at 6 µM in data set [1] and 14 µM in data set [2] (setting [11]).
Take `COCc1cn([C@H]2C=C(C(=O)O)O[C@@H]([C@H](O)[C@H](O)CO)[C@@H]2NC(=O)C(C)C)nn1` [Compound 9, Sodium 2,6-anhydro-3,4,5-trideoxy-5-isobutyramido-4-(4-methoxymethyl-[1,2,3,]triazol-1-yl)-D-glycero-D-galacto-non-2-enonate]: the IC50 in [3] (setting [12]) is 13.8 µM; in data set [3] (read-out: hPIV-3 HN HI IC50), 13.8 µM; in data set [4], 13.1 µM; in [5] (setting [13]), 14.2 µM; in [5] (read-out: hPIV-3 HN NI IC50) it was 14.2 µM; in data set [6], 0.489 µM.
As to `CC(=O)N[C@H]1[C@H]([C@H](O)[C@H](O)CO)OC(C(=O)[O-])=C[C@@H]1n1cc(-c2ccccc2)nn1.[Na+]` [Compound 8, Sodium 5-acetamido-2,6-anhydro-3,4,5-trideoxy-4-(4-phenyl-[1,2,3,]triazol-1-yl)-D-glycero-D-galacto-non-2-enonate], in data set [7] (reference signal), the “Relative STD NMR effect, ArH4′” value is reported as 100%. Moreover, in [7] (relative to ArH4′), the “Relative STD NMR effect, ArH2′ ArH6′” value is 92%; the “Relative STD NMR effect, ArH3′ ArH5′” value is 100%; the “Relative STD NMR effect, H3” value is 85%; the “Relative STD NMR effect, H4” value turned out to be 59%. Besides, in data set [7] (relative to ArH4′), the “Relative STD NMR effect, H5” value came to 50%; the “Relative STD NMR effect, H6” value was 49%; the “Relative STD NMR effect, H7” value came out at 30%; the “Relative STD NMR effect, H8” value is reported as 30%. In addition, in data set [7] (relative to ArH4′), the “Relative STD NMR effect, H9” value is listed as 12%; the “Relative STD NMR effect, H9′” value was determined as 18%; the “Relative STD NMR effect, NHAc” value came to 41%; the “Relative STD NMR effect, Triazole CH” value was determined as 63%. In addition, the IC50 in data set [3] (setting [12]) came out at 4.58 µM. In addition, in data set [3] (read-out: hPIV-3 HN HI IC50), the IC50 worked out at 4.6 µM. In addition, the “Cytotoxic effect (MTT)” value in [8] is on record as “No cytotoxic effect”. Further, in data set [4], the IC50 was determined as 5.85 µM. Further, in data set [5] (setting [13]), the IC50 was 6.51 µM. Also, the IC50 in data set [5] (read-out: hPIV-3 HN NI IC50) came to 6.5 µM. The midpoint of inhibition in [6], the IC50, lay at 168 µM.
On to `CC(=O)N[C@H]1[C@H]([C@H](O)[C@H](O)CO)O[C@@](Oc2ccc3c(C)cc(=O)oc3c2)(C(=O)O)C[C@@H]1O` [MUN, 2′-(4-methylumbelliferyl) […]-D-N-acetylneuraminide], for which the Km in data set [9] is 5.1 mM.
`CC(=O)NC1C(N=[N+]=[N-])C=C(C(=O)O)OC1C(O)C(O)CO` (centres unmarked) [Compound 3, 4-azido-4-deoxy-Neu5Ac2en, reference compound]: the IC50 in [3] (read-out: hPIV-3 HN HI IC50) worked out at 210 µM; in [5] (setting [13]), 138 µM.
Regarding `COCc1cn([C@H]2C=C(C(=O)O)O[C@@H]([C@H](O)[C@H](O)CO)[C@@H]2NC(C)=O)nn1` [Compound 7, Sodium 5-acetamido-2,6-anhydro-3,4,5-trideoxy-4-(4-methoxymethyl-[1,2,3,]triazol-1-yl)-D-glycero-D-galacto-non-2-enonate], the IC50 in [3] (setting [12]) amounted to 312 µM; in data set [3] (read-out: hPIV-3 HN HI IC50), 313 µM; in data set [4], 148 µM; in [5] (setting [13]) it was 154 µM; in data set [5] (read-out: hPIV-3 HN NI IC50) it was 154 µM; in data set [6], 19.8 µM.
Regarding `CC(C)C(=O)N[C@H]1[C@H]([C@H](O)[C@H](O)CO)OC(C(=O)[O-])=C[C@@H]1n1cc(-c2ccccc2)nn1.[Na+]` [Compound 10, Sodium 2,6-anhydro-3,4,5-trideoxy-5-isobutyramido-4-(4-phenyl-[1,2,3,]triazol-1-yl)-D-glycero-D-galacto-non-2-enonate], the “Cytotoxic effect (MTT)” value in [8] was “No cytotoxic effect”. The inhibition at 2 µM in [10] is 94%. Moreover, the IC50 in data set [2] (Human respirovirus 3, A549, read-out: Virus growth IC50 (in situ ELISA)) was 10.3 ± 0.3 µM; in data set [2] (Human respirovirus 3, LLC-MK2, read-out: Virus growth IC50 (in situ ELISA)) it was 2.1 ± 0.6 µM; in [2] (Human respirovirus 3, NHBE, read-out: Virus growth IC50 (in situ ELISA)), 13.9 ± 0.7 µM; in data set [2] (Human respirovirus 3, read-out: Virus growth inhibition IC50, range over all three cell lines), 2.1 to 13.9 µM. In data set [2] (LLC-MK2 cells, versus 6), the “times more potent than 6, cell-based assay” value is reported as about 26 times.
Regarding `CC(=O)N[C@H]1[C@H]([C@H](O)[C@H](O)CO)OC(C(=O)O)=C[C@@H]1n1cc(CC(C)C)nn1` [IE832-8, Sodium 5-acetamido-2,6-anhydro-3,4,5-trideoxy-4-(4-isobutyl-[1,2,3,]triazol-1-yl)-D-glycero-D-galacto-non-2-enonate], the IC50 in data set [4] amounted to 54.4 µM; in data set [6], 301 µM.
The matching figures for `CC(=O)N[C@H]1[C@H]([C@H](O)C(O)CO)OC(C(=O)O)=C[C@@H]1n1cc(-c2ccccc2C(F)(F)F)nn1` (stereo partly drawn) [IE1172-83, Sodium 5-acetamido-2,6-anhydro-3,4,5-trideoxy-4-(4-(2-(trifluoromethyl)phenyl)-[1,2,3,]triazol-1-yl)-D-glycero-D-galacto-non-2-enonate]: 5.61 µM and 73.6 µM.
`CC(=O)NC1C(O)C=C(C(=O)O)OC1C(O)C(O)CO` (centres unmarked) [Compound 2, Neu5Ac2en, reference compound]: in data set [3] (read-out: hPIV-3 HN HI IC50), the IC50 is 1440 µM.
For the molecule `CC(=O)N[C@H]1[C@H]([C@H](O)C(O)CO)OC(C(=O)O)=C[C@@H]1n1cc(-c2ccccc2Cl)nn1` (stereo partly drawn) [IE1172-78, Sodium 5-acetamido-2,6-anhydro-4-(4-(2-chlorophenyl)-[1,2,3,]triazol-1-yl)-3,4,5-trideoxy-D-glycero-D-galacto-non-2-enonate], the IC50 in [4] was determined as 2.47 µM; in [6], 75.2 µM.
As for `CC(C)C(=O)NC1C(O)C=C(C(=O)O)OC1C(O)C(O)CO` (centres unmarked) [Compound 5, reference compound], the IC50 is 358 µM in data set [3] (setting [12]) and 188 µM in data set [5] (setting [13]).
On to `CC(C)C(=O)N[C@H]1[C@H]([C@H](O)[C@H](O)CO)OC(C(=O)O)=C[C@@H]1n1cnnn1` [IE889-42, Sodium 2,6-anhydro-3,4,5-trideoxy-5-isobutyramido-4-(H-tetrazol-1-yl)-D-glycero-D-galacto-non-2-enonate], for which the values for the IC50 in [4] and in data set [6] were 5.11 µM and 0.159 µM, respectively.
Regarding `CC(C)C(=O)NC1C([C@H](O)[C@H](O)CO)OC(F)(C(=O)O)C(F)C1n1cc(-c2ccccc2)nn1` (some centres unmarked) [I-79], the IC50 was 63 µM in data set [1] and 45 µM in data set [2] (setting [11]).
With `COCc1cn(C2C(NC(=O)C(C)C)C(C(O)C(O)CO)OC(F)(C(=O)O)C2F)nn1` (centres unmarked) [I-104], the results for the IC50 in data set [1] and in [2] (setting [11]) were 4 µM and 25 µM, respectively.
